Experimental data as given in patent US20260152487A1 (Sitryx Therapeutics Limited, priority 2021, published 2026).

Molecular target: T1, recombinant human PKM2 (Homo sapiens, UniProt P14618)
T1 construct: His (N); purchased R&D Systems
Experiment: Human PKM2 activation assay (Kinase-Glo Plus luminescent detection of generated ATP)
Format: biochemical
Settings: for Emax: read-out: hPKM2 Emax; for EC50: recombinant human PKM2 activation, 4-parameter logistic fit, read-out: hPKM2 EC50
Experimental: Compound activation of recombinant human PKM2 pyruvate kinase activity was determined by biochemical assay. N-terminal His-tagged hPKM2 was sourced from R&D Systems and its substrates phosphoenolpyruvate (PEP) and ADP from Sigma-Aldrich and 2Bscientific Ltd, respectively. The Kinase-Glo® Plus luminescence assay was from Promega. All other reagents were from Sigma-Aldrich. Test Compounds were prepared as 10 mM DMSO stocks and dilution series prepared in DMSO for direct dilution into Assay Buffer comprising 50 mM imidazole, 50 mM KCl, 7 mM MgCl2, 0.01% Tween20, 0.05% BSA (pH 7.2).
Human PKM2 was diluted into Assay Buffer comprising 50 mM imidazole, 50 mM KCl, 7 mM MgCl2, 0.01% Tween20, 0.05% BSA (pH 7.2) to a final concentration of […]. Enzyme-Assay Buffer mix was dispensed into a 384-well shallow-well white-walled plate (PerkinElmer) and Test Compounds added by acoustic dispense (Echo®, Labcyte Inc.).
After 60 minutes' incubation on an orbital shaker (300 rpm, 26° C.), enzyme activity was quantified by the luminescent detection of generated ATP. Kinase-Glo® Plus reagent was added to each well and the plates incubated for a further 15 minutes on an orbital shaker in the dark (300 rpm, 26° C.) before luminescence measurement on a plate reader (PHERAstar® FSX, BMG Labtech).
Percentage activation was calculated by normalising […] signals to plate LOW (DMSO vehicle) and HIGH (5 μM TEPP-46) controls. EC50 and Emax values were determined from 4-parameter logistic fits of compound concentration-response curves.

[1] = percentage activation normalised to DMSO vehicle (LOW) and 5 μM TEPP-46 (HIGH)

T1 sequence (P14618 2-531 limits assumed): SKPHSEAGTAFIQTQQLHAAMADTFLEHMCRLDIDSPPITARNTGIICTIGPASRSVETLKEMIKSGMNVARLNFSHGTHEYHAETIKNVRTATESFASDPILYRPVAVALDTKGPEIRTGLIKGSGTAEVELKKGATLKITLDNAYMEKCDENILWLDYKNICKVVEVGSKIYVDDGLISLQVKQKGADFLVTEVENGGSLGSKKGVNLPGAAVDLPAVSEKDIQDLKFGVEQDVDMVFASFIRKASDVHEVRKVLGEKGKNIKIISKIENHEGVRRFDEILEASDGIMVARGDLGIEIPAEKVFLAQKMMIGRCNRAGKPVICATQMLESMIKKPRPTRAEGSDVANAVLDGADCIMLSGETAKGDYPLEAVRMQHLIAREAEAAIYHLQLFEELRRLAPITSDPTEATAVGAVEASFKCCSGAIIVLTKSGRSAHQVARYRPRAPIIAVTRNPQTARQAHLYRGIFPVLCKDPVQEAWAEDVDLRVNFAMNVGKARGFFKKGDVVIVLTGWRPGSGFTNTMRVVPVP

Compound	Emax [1]	EC50	hPKM2 Emax [1]
Cc1nc(S(=O)(=O)c2ccc3c(=O)n(Cc4ccn(C)n4)ncc3c2)cs1 [Example 214, 2-((1-methyl-1H-pyrazol-3-yl)methyl)-6-((2-methylthiazol-4-yl)sulfonyl)phthalazin-1(2H)-one]	102%	254 nM	–
Cc1cc(Cn2ncc3cc(S(=O)(=O)c4cn[nH]c4)ncc3c2=O)n[nH]1 [Example 300, 7-((1H-pyrazol-4-yl)sulfonyl)-3-((5-methyl-1H-pyrazol-3-yl)methyl)pyrido[3,4-d]pyridazin-4(3H)-one]	93.2%	99 nM	–
Cn1ccc(Cn2ncc3cc(S(=O)(=O)c4ccc(OC(F)(F)F)cc4)ccc3c2=O)n1 [Example 218, 20((1-methyl-1H-pyrazol-3-yl)methyl)-6-((4-(trifluoromethoxy)phenyl)sulfonyl)phthalazin-1(2H)-one]	116%	192 nM	–
O=c1c2ccc(S(=O)(=O)c3cn[nH]c3)cc2cnn1Cc1ccc2c(n1)NCCO2 [Example 354]	106%	23.3 nM	–
O=c1c2ccc(S(=O)(=O)c3cnccn3)cc2cnn1Cc1cc[nH]n1 [Example 260, 2-((1H-pyrazol-3-yl)methyl)-6-(pyrazin-2-ylsulfonyl)phthalazin-1(2H)-one]	113%	469 nM	–
COc1ccc(Cn2ncc3cc(S(=O)(=O)c4ccc(C)s4)ccc3c2=O)cn1 [Example 171, 2-((6-methoxypyridin-3-yl)methyl)-6-(5-methylthiophen-2-ylsulfonyl)phthalazin-1(2H)-one]	82.3%	77.2 nM	–
Cc1cccc(Cn2ncc3cc(S(=O)(=O)c4cnn(CCO)c4)ccc3c2=O)n1 [Example 269]	103%	129 nM	–
Cn1ccc(S(=O)(=O)c2ccc3c(=O)n(Cc4ccc5occc5n4)ncc3c2)n1 [Example 336]	106%	28.5 nM	–
2-(3-aminobenzyl)-6-((2-mathylthiazol-4-yl)sulfonyl)phthalazin-1(2H)-one [Example 151]	–	36.5 nM	92.52%
O=c1c2ccc(S(=O)(=O)c3ccccc3)cc2cnn1Cc1ccn(C(F)F)n1 [Example 28, 2-((1-(difluoromethyl)-1H-pyrazol-3-yl)methyl)-6-(phenylsulfonyl)phthalazin-1(2H)-one]	103%	162 nM	–
NC(=O)c1cccc(Cn2ncc3cc(S(=O)(=O)c4ccccc4)ccc3c2=O)c1 [Example 84, 3-((1-oxo-6-(phenylsulfonyl)phthalazin-2(1H)-yl)methyl)benzamide]	93.1%	115 nM	–
Cn1ccc(Cn2ncc3cc(S(=O)(=O)c4ccc5c(c4)OCCO5)ccc3c2=O)n1 [Example 215, 6-((2,3-dihydrobenzo[b][1,4]dioxin-6-yl)sulfonyl)-2-((1-methyl-1H-pyrazol-3-yl)methyl)phthalazin-1(2H)-one]	93.4%	25.2 nM	–
NC(=O)c1nc(Cn2ncc3cc(S(=O)(=O)c4ccccc4)ccc3c2=O)cs1 [Example 93, 4-((1-oxo-6-(phenylsulfonyl)phthalazin-2(1H)-yl)methyl)thiazole-2-carboxamide]	108%	411 nM	–
COc1ccc(S(=O)(=O)c2ccc3c(=O)n(Cc4ccncc4O)ncc3c2)cc1 [Example 105, 2-((3-hydroxypyridin-4-yl)methyl)-6-(4-methoxyphenylsulfonyl)phthalazin-1(2H)-one]	103%	813 nM	–
Cc1cc(Cn2ncc3cc(S(=O)(=O)c4cnn(C(F)F)c4)ccc3c2=O)n[nH]1 [Example 315]	108%	241 nM	–
COc1ccc(Cn2ncc3cc(S(=O)(=O)c4ccc(OC(F)F)cc4)ccc3c2=O)cn1 [Example 153, 6-(4-(difluoromethoxy)phenylsulfonyl)-2-((6-methoxypyridin-3-yl)methyl)phthalazin-1(2H)-one]	77.2%	15.7 nM	–
COc1ncccc1Cn1ncc2cc(S(=O)(=O)c3cn[nH]c3)ccc2c1=O [Example 284, 6-((1H-pyrazol-4-yl)sulfonyl)-2-((2-methoxypyridin-3-yl)methyl)phthalazin-1(2H)-one]	72.7%	452 nM	–
COc1ccc(Cn2ncc3cc([S@](=N)(=O)c4ccc(OC(F)F)cc4)ccc3c2=O)cn1 (single isomer, unassigned) [Example 135]	79.9%	111 nM	–
COc1ccc(Cn2ncc3cc(S(=O)(=O)c4csc(C(N)=O)c4)ccc3c2=O)cn1 [Example 118, 4-(2-((6-methoxypyridin-3-yl)methyl)-1-oxo-1,2-dihydrophthalazin-6-ylsulfonyl)thiophene-2-carboxamide]	93.2%	60.2 nM	–

Compound	Emax [1]	EC50	hPKM2 Emax [1]
Cc1cc2nc(Cn3ncc4cc(S(=O)(=O)c5cn[nH]c5)ccc4c3=O)ccc2o1 [Example 345]	113%	11.4 nM	–
COc1ccc(Cn2ncc3cc(S(=O)(=O)c4ccc5c(c4)OCCO5)ccc3c2=O)cn1 [Example 182, 6-((2,3-dihydrobenzo[b][1,4]dioxin-6-yl)sulfonyl)-2-((6-methoxypyridin-3-yl)methyl)phthalazin-1(2H)-one]	80.2%	15.2 nM	–
Nc1cccc(Cn2ncc3cc(S(=O)(=O)c4cccnc4)ccc3c2=O)c1 [Example 121, 2-(3-aminobenzyl)-6-(pyridin-3-ylsulfonyl)phthalazin-1(2H)-one]	116%	620 nM	–
Cc1ccc(S(=O)(=O)c2ccc3c(=O)n(Cc4cccc(N)c4)ncc3c2)s1 [Example 146, 2-(3-aminobenzyl)-6-((5-methylthiophen-2-yl)sulfonyl)phthalazin-1(2H)-one]	115%	75.3 nM	–
Cc1cccc(Cn2ncc3cc(S(=O)(=O)c4n[nH]cc4Cl)ccc3c2=O)n1 [Example 319]	102%	157 nM	–
Cc1cc2cc(S(=O)(=O)c3ccc4c(=O)n(Cc5cc[nH]n5)ncc4c3)ccc2o1 [Example 224, 2-((1H-pyrazol-3-yl)methyl)-6-((2-methylbenzofuran-5-yl)sulfonyl)phthalazin-1(2H)-one]	121%	43.6 nM	–
Cc1cccc(Cn2ncc3cc(S(=O)(=O)c4csc(C(C)O)n4)ccc3c2=O)n1 (centres unmarked) [Example 282, 6-((2-(1-hydroxyethyl)thiazol-4-yl)sulfonyl)-2-((6-methylpyridin-2-yl)methyl)phthalazin-1(2H)-one]	109%	155 nM	–
O=c1c2cc(NCCO)c(S(=O)(=O)c3ccccc3)cc2cnn1Cc1cccnc1O [Example 246, 7-((2-hydroxyethyl)amino)-2-((2-hydroxypyridin-3-yl)methyl)-6-(phenylsulfonyl)phthalazin-1(2H)-one]	96.7%	261 nM	–
Cc1cc(Cn2ncc3cc(S(=O)(=O)c4cn[nH]c4)ccc3c2=O)nn1C [Example 310]	107%	153 nM	–
O=c1c2ccc(S(=O)(=O)c3ccc4ccoc4c3)cc2cnn1Cc1cc[nH]n1 [Example 222, 2-((1H-pyrazol-3-yl)methyl)-6-(benzofuran-6-ylsulfonyl)phthalazin-1(2H)-one]	115%	136 nM	–
Cc1cc(Cn2ncc3cc(S(=O)(=O)c4ccccc4)ccc3c2=O)no1 [Example 80, 2-((5-methylisoxazol-3-yl)methyl)-6-(phenylsulfonyl)phthalazin-1(2H)-one]	93.2%	799 nM	–
O=c1c2ccc(S(=O)(=O)c3ccc4sccc4c3)cc2cnn1Cc1cc[nH]n1 [Example 227, 2-((1H-pyrazol-3-yl)methyl)-6-(benzo[b]thiophen-5-ylsulfonyl)phthalazin-1(2H)-one]	115%	35.4 nM	–
O=c1c2ccc(S(=O)(=O)c3cccnc3)cc2cnn1Cc1cc[nH]n1 [Example 233, 2-((1H-pyrazol-3-yl)methyl)-6-(pyridin-3-ylsulfonyl)phthalazin-1(2H)-one]	126%	489 nM	–
COc1ccc(Cn2ncc3cc([S@](=N)(=O)c4ccccc4)ccc3c2=O)cn1 (single isomer, unassigned) [Example 132]	95.1%	289 nM	–
Cc1cc(Cn2ncc3cc(S(=O)(=O)c4cnn(C(F)F)c4)ncc3c2=O)n[nH]1 [Example 343]	98.2%	97.6 nM	–
COc1ccc(Cn2ncc3cc(S(=O)(=O)c4cnc5c(c4)CCO5)ccc3c2=O)cn1 [Example 183, 6-((2,3-dihydrofuro[2,3-b]pyridin-5-yl)sulfonyl)-2-((6-methoxypyridin-3-yl)methyl)phthalazin-1(2H)-one]	79.7%	47.2 nM	–
COc1ccc(F)c(Cn2ncc3cc(S(=O)(=O)c4cn[nH]c4)ccc3c2=O)n1 [Example 326]	106%	174 nM	–
COc1cnc(Cn2ncc3cc(S(=O)(=O)c4ccccc4)ccc3c2=O)cn1 [Example 87, 2-((5-methoxypyrazin-2-yl)methyl)-6-(phenylsulfonyl)phthalazin-1(2H)-one]	85.8%	475 nM	–
